Data: patent US20170283453A1, “COFACTOR ANALOGUES FOR METHYLTRANSFERASES” (KATHOLIEKE UNIVERSITEIT LEUVEN, priority 2014, published 2017)
Counter-ions that a name gives are not always drawn.

Experiments:
[1] = molecular target: M.TaqI DNA methyltransferase (Thermus aquaticus, UniProt P14385); test: Restriction protection assay after M.TaqI-directed DNA modification (agarose gel); assay type: biochemical; details: pUC19 DNA, Cutsmart buffer, 60° C., 1 hour; restriction enzyme TaqaI 1 hour; Ethidium bromide
Sequence of M.TaqI DNA methyltransferase (P14385 whole entry): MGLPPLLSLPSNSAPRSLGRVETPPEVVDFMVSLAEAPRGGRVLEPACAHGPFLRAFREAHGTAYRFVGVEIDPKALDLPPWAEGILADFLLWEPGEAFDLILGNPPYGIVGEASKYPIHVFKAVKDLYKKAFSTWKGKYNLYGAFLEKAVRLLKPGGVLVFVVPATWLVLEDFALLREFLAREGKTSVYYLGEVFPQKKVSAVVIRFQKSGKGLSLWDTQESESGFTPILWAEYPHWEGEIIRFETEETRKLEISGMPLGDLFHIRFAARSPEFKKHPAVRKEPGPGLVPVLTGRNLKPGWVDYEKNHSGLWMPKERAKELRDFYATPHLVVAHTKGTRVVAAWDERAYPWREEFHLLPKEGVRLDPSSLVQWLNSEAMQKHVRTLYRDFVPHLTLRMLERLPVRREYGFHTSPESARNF
Method: Adenine-N6 DNA modification by M.TaqI DNA methyltransferase: […] DNA methyltransferase targets the four-base recognition sequence 5′-TCGA-3′ and modifies the underlined adenine residue at the N6-position and was combined with (6-Azido-hex-2-yne)(5′-Deoxyadenosyl)-(L-Cysteine)sulfonium salt (see example 9 for preparation). The methyltransferase enzyme and cofactors were incubated with pUC19 DNA in “Cutsmart buffer” at 60° C. for 1 hour. To determine if protection occurred the DNA was incubated with the corresponding restriction enzyme (TaqaI) for 1 hour. Afterwards, the remaining proteins were digested with Proteinase K. The DNA samples are then placed on an agarose gel and visualized with Ethidium bromide (FIG. 1).
Adenine-N6 DNA modification by M.TaqI DNA methyltransferase: […] DNA methyltransferase targets the four-base recognition sequence 5′-TCGA-3′ and modifies the underlined adenine residue at the N6-position and was combined with Rhodamine sulfonium salt (see example 12 for preparation). The methyltransferase enzyme and cofactors were incubated with pUC19 DNA in “Cutsmart buffer” at 60° C. for 1 hour. To determine if protection occurred the DNA was incubated with the corresponding restriction enzyme (TaqaI) for 1 hour. […]

[2] = test system: M.MpeI DNA methyltransferase; test: Restriction protection assay after M.MpeI-directed DNA modification (agarose gel); assay type: biochemical; details: pUC19 DNA, Cutsmart buffer, 60° C., 1 hour; restriction enzyme HhaI 1 hour; Ethidium bromide
Method: Cytosine DNA modification by M.MpeI DNA methyltransferase: […] DNA methyltransferase targets the two-base recognition sequence 5′-CG-3′ and modifies the underlined cytosine residue and was combined with (8-Azido-oct-2-ene)(5′-Deoxyadenosyl)-(L-Cysteine)sulfonium salt (see example 9 for preparation). The methyltransferase enzyme and cofactors were incubated with pUC19 DNA in “Cutsmart buffer” at 60° C. for 1 hour. To determine if protection occurred the DNA was incubated with the corresponding restriction enzyme (HhaI) for 1 hour. Afterwards, the remaining proteins were digested with Proteinase K. The DNA samples are then placed on an agarose gel and visualized with Ethidium bromide (FIG. 3).

plasmid DNA = test: Super resolution microscopy of fluorescently labeled DNA; details: FIG. 5 panel C; DNA spin coated on poly-L-lysine coated cover slips
Method: Adenine-N6 DNA modification by M.TaqI DNA methyltransferase: […] DNA methyltransferase targets the four-base recognition sequence 5′-TCGA-3′ and modifies the underlined adenine residue at the N6-position and was combined with Rhodamine sulfonium salt (see example 12 for preparation). The methyltransferase enzyme and cofactors were incubated with pUC19 DNA in “Cutsmart buffer” at 60° C. for 1 hour. To determine if protection occurred the DNA was incubated with the corresponding restriction enzyme (TaqaI) for 1 hour. Afterwards, the remaining proteins were digested with Proteinase K. DNA samples are then placed on an agarose gel and visualized with Ethidium bromide (FIG. 4).
Fluorescent DNA was purified using DNA Cleaner & Concentrator 5 columns (Zymo Research), and the DNA was spin coated on poly-L-lysine coated cover slips and used directly for microscopy studies. (FIG. 5)

## [N-]=[N+]=NCCCC#CC[S+](C[C@H](N)C(=O)O)C[C@H]1O[C@@H](n2cnc3c(N)ncnc32)C(O)C1O (stereo partly drawn) [(6-Azido-hex-2-yne)(5′-Deoxyadenosyl)-(L-Cysteine)sulfonium Salt]
[1]
  Protection of DNA against cutting by restriction enzyme (band pattern on agarose gel): 1 strong band, corresponding to uncut DNA

## [N-]=[N+]=NCCCCCC=CC[S+](C[C@H](N)C(=O)O)C[C@H]1O[C@@H](n2cnc3c(N)ncnc32)[C@H](O)[C@@H]1O (stereo partly drawn) [(8-Azido-oct-2-ene)(5′-Deoxyadenosyl)-(L-Cysteine)sulfonium salt]
[2]
  Protection of DNA against cutting by restriction enzyme (band pattern on agarose gel): 1 strong band, corresponding to uncut DNA

## CCN(CC)c1ccc2c(-c3ccccc3C(=O)N(C)CCC(=O)NCCCCC/C=C/C[S+](C[C@H](N)C(=O)O)C[C@H]3O[C@@H](n4cnc5c(N)ncnc54)[C@@H](O)C3O)c3ccc(=[N+](CC)CC)cc-3oc2c1 (stereo partly drawn) [Rhodamine sulfonium salt]
Plasmid DNA
  Colocalization of the dye with a DNA intercalating dye (fluorescent DNA labeling): successful fluorescent DNA labeling
